Assay results published in patent US20120115151A1, “METHOD FOR TESTING A SUBJECT THOUGHT TO BE PREDISPOSED TO HAVING METASTATIC CANCER USING DELTA133P53BETA” (CENTRE NATIONAL DE LA RECHERCHE SCIENTIFIQUE (CNRS), priority 2009, published 2012).

System: hct116 cells transfected with GFP-tagged Δ133p53 isoforms
Experiment: Matrigel Transwell invasion assay in the presence of the ROCK inhibitor
Format: cell-based
Settings: Y27632 at 10 μM; cells expressing Δ133p53 isoforms invading through Matrigel
Experimental: Y27632 was purchased from calbiochem and was used at 10 μM in all experiments. The quantification of cell invasion was carried out in Transwell cell culture chambers containing fluorescence-blocking polycarbonate porous membrane inserts (Fluoroblock; #351152; BD Biosciences; pore size 8 μm). 100 μl of 2 mg/mL Matrigel with reduced growth factors (a commercially prepared reconstituted BM from Englebreth-Holm-Swarm tumours, #354230; BD Biosciences) were prepared in a Transwell. Cells were transfected and treated or not with Y27632 as monolayers before trypsinization and plating (10·10^4) in 2% FCS containing media on top of a thick layer (around 500 μm) of Matrigel contained within the upper chamber of a Transwell. Controls were left untreated. The upper and lower chambers were then filled with respectively 2% FCS containing media and media with 10% FCS, thus establishing a soluble gradient of chemo-attractant that permits cell invasion throughout the Matrigel. Cells were allowed to invade at 37° C., 5% CO2 through the gel before fixing for 15 min in 3.7% formaldehyde. Cells that had invaded through the Matrigel were detected on the lower side of the filter by GFP fluorescence and counted for cell number. All the surface of the filter is counted and each assay was performed twice in triplicate for each condition. […]

## C[C@@H](N)[C@H]1CC[C@H](C(=O)Nc2ccncc2)CC1 [Y27632]
  invasiveness of transfected cells: highly reduced
